# Key:
# Test in all cases: relative viability (nuclei count vs DMSO), 5 days (fraction); higher = more cells survive
# TPCA-1 + AZD7762 = compound: C1=CC(=CC=C1C2=CC(=C(S2)NC(=O)N)C(=O)N)F [TPCA-1] + NC(=O)Nc1cc(-c2cccc(F)c2)sc1C(=O)N[C@H]1CCCNC1 [AZD7762] (partner 0.2 µM)
# Summary of the method: (§1)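 Lung cancer cell lines were pin-tool dosed in 1536-well plates on the day after seeding, with either a lone drug or a fixed anchor-drug dose plus five library-drug doses (not always all listed) in √10 steps. Nuclei were counted on 4× images after 5 days. Relative viability is the ratio of treated-well to vehicle-well nuclei counts, with each value a median of duplicate plates.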
# [1] = compound: C1/C(=C\C2=CC=CS2)/C(=O)/C(=C/C3=CC=CS3)/C1 + NC(=O)Nc1cc(-c2cccc(F)c2)sc1C(=O)N[C@H]1CCCNC1 [AZD7762] (partner 0.2 µM)
# Summary of the method: as §1
# Lestaurtinib + Olaparib = compound: C[C@]12O[C@H](C[C@]1(O)CO)n1c3ccccc3c3c4c(c5c6ccccc6n2c5c31)CNC4=O [Lestaurtinib] + O=C(c1cc(Cc2n[nH]c(=O)c3ccccc23)ccc1F)N1CCN(C(=O)C2CC2)CC1 [Olaparib] (partner 8 µM)
# Summary of the method: as §1
# [2] = compound: C1/C(=C\C2=CC=CS2)/C(=O)/C(=C/C3=CC=CS3)/C1 + Cc1nc(Nc2ncc(C(=O)Nc3c(C)cccc3Cl)s2)cc(N2CCN(CCO)CC2)n1 [Dasatinib] (partner 0.075 µM)
# Summary of the method: as §1
Cell Line,relative viability (TPCA-1 + AZD7762; first compound 0.4 µM),relative viability (TPCA-1 + AZD7762; first compound 1.265 µM),relative viability (TPCA-1 + AZD7762; first compound 4 µM),relative viability ([1]; first compound 0.2 µM),relative viability ([1]; first compound 0.6325 µM),relative viability ([1]; first compound 2 µM),relative viability ([1]; first compound 6.325 µM),relative viability ([1]; first compound 20 µM),relative viability (Lestaurtinib + Olaparib; first compound 0.005 µM),relative viability (Lestaurtinib + Olaparib; first compound 0.01581 µM),relative viability (Lestaurtinib + Olaparib; first compound 0.05 µM),relative viability (Lestaurtinib + Olaparib; first compound 0.1581 µM),relative viability (Lestaurtinib + Olaparib; first compound 0.5 µM),relative viability ([2]; first compound 0.2 µM),relative viability ([2]; first compound 0.6325 µM),relative viability ([2]; first compound 2 µM),relative viability ([2]; first compound 6.325 µM),relative viability ([2]; first compound 20 µM),relative viability (TPCA-1 + AZD7762; first compound 0.04 µM),relative viability (TPCA-1 + AZD7762; first compound 0.1265 µM)
SW 900,0.685,0.631,0.586,0.74,0.665,0.628,0.495,0.602,0.92,1.12,0.958,1.34,1.07,0.64,0.773,0.769,0.574,0.671,,
NCI-H1437,1.14,1.03,0.906,1.14,1.2,1.19,1.03,1.1,0.671,0.662,0.571,0.67,0.553,0.408,0.446,0.561,0.412,0.378,1.19,
NCI-H2405,0.877,0.79,0.648,0.958,0.757,0.867,0.716,0.715,0.98,1.01,0.913,0.846,0.486,0.223,0.212,0.224,0.211,0.221,0.859,0.738
NCI-H838,0.935,0.801,0.886,0.967,0.949,0.933,0.875,0.841,0.911,0.796,0.549,0.348,0.162,0.278,0.268,0.274,0.276,0.284,0.972,0.855
NCI-H1734,0.604,0.639,0.374,0.591,0.57,0.551,0.415,0.523,0.647,0.626,0.578,0.533,0.271,0.458,0.49,0.498,0.458,0.497,0.558,0.504
NCI-H596,1.19,1.44,1.02,1.12,1.12,1.13,0.659,1.02,0.646,0.669,0.61,0.66,0.696,0.577,0.677,0.598,0.628,0.586,1.21,1.04
NCI-H1944,0.565,0.455,0.474,0.502,0.461,0.526,,0.442,0.437,0.479,0.34,0.419,0.344,0.225,0.202,0.217,0.225,0.19,0.474,0.484
LK-2,0.53,0.392,0.131,0.548,,0.562,0.408,0.421,0.767,0.896,0.602,0.466,0.133,0.359,0.443,0.345,0.29,0.346,0.593,
HCC-15,1.21,1.28,1.15,1.14,1.33,1.41,1.06,1.13,0.863,0.756,0.782,0.777,0.167,0.692,0.61,0.65,0.489,0.586,1.31,1.09
NCI-H727,0.497,0.701,0.698,0.574,0.527,0.731,,0.682,0.812,0.604,0.731,,0.678,0.333,0.49,0.447,0.449,0.387,0.596,0.68
HOP-62,0.669,0.523,0.436,0.661,0.688,0.657,0.385,0.692,0.287,0.763,0.515,0.525,0.16,0.678,0.683,0.729,0.651,0.61,0.554,0.557
NCI-H3122,1.04,0.941,0.957,0.983,0.919,0.968,0.956,0.967,0.862,0.637,0.552,0.598,0.5,0.843,0.836,1.05,0.827,0.82,1.1,0.97
NCI-H1395,0.381,0.37,0.444,0.36,0.356,0.405,0.411,0.414,0.498,0.494,0.426,0.406,0.369,0.422,0.406,0.399,0.406,0.382,0.398,0.378
NCI-H647,0.629,0.451,0.327,0.504,0.471,0.446,0.445,0.592,0.67,0.67,0.186,0.211,0.108,0.214,0.145,0.19,0.211,0.16,0.618,0.447
NCI-H650,1.1,0.541,0.906,1.14,0.952,0.897,0.937,1.11,0.43,0.413,0.382,0.319,0.28,0.462,0.416,0.569,0.446,0.444,1.03,0.895
EKVX,0.813,0.669,0.677,0.631,0.685,0.764,,0.695,0.941,,0.947,1.07,0.641,0.556,0.433,0.519,,0.459,0.739,

Cell Line,relative viability (TPCA-1 + AZD7762; first compound 0.4 µM),relative viability (TPCA-1 + AZD7762; first compound 1.265 µM),relative viability (TPCA-1 + AZD7762; first compound 4 µM),relative viability ([1]; first compound 0.2 µM),relative viability ([1]; first compound 0.6325 µM),relative viability ([1]; first compound 2 µM),relative viability ([1]; first compound 6.325 µM),relative viability ([1]; first compound 20 µM),relative viability (Lestaurtinib + Olaparib; first compound 0.005 µM),relative viability (Lestaurtinib + Olaparib; first compound 0.01581 µM),relative viability (Lestaurtinib + Olaparib; first compound 0.05 µM),relative viability (Lestaurtinib + Olaparib; first compound 0.1581 µM),relative viability (Lestaurtinib + Olaparib; first compound 0.5 µM),relative viability ([2]; first compound 0.2 µM),relative viability ([2]; first compound 0.6325 µM),relative viability ([2]; first compound 2 µM),relative viability ([2]; first compound 6.325 µM),relative viability ([2]; first compound 20 µM),relative viability (TPCA-1 + AZD7762; first compound 0.04 µM),relative viability (TPCA-1 + AZD7762; first compound 0.1265 µM)
NCI-H460,0.738,0.622,0.731,0.684,0.595,0.634,0.618,0.609,0.511,0.532,0.449,0.516,0.429,0.562,0.526,0.6,0.461,0.484,0.676,0.684
NCI-H2342,0.403,0.349,0.404,0.484,0.537,0.718,0.483,0.363,0.44,0.432,0.439,0.43,0.501,0.314,0.347,0.352,0.306,0.326,0.504,0.469
LCLC-97TM1,0.223,0.164,0.217,0.3,0.254,0.259,0.252,0.14,,0.456,0.299,0.185,0.188,0.896,0.776,0.791,0.672,0.811,0.231,0.237
NCI-H1355,0.756,0.675,0.707,0.69,0.835,0.804,0.559,0.622,0.804,0.754,0.563,0.566,0.369,0.772,0.701,0.712,0.598,0.682,0.831,0.7
NCI-H1666,0.79,0.714,0.757,0.877,0.86,0.968,0.793,0.815,0.779,0.799,0.871,0.976,0.827,0.833,0.847,0.811,0.786,0.875,0.895,0.659
EPLC-272H,0.314,0.26,0.276,0.179,0.276,0.182,0.221,0.183,0.58,0.53,0.503,0.359,0.108,0.322,0.332,0.45,0.349,0.311,0.368,0.26
ChaGo-K-1,0.904,0.8,0.522,0.91,0.9,0.873,0.581,0.51,0.424,0.464,0.427,0.387,0.279,0.546,0.669,0.592,0.51,0.286,0.869,0.883
NCI-H1651,0.462,0.431,0.401,0.474,0.511,0.486,0.505,0.45,0.166,0.199,0.17,0.169,0.147,0.435,0.504,0.417,0.425,0.401,0.486,0.439
PC-3 [JPC-3],0.85,0.823,0.655,,0.934,0.889,0.804,0.798,1.2,1.3,0.818,1.03,0.698,1.03,0.981,1.04,0.856,0.948,0.844,0.802
LOU-NH91,0.724,0.68,0.697,0.744,0.837,0.834,0.697,0.745,0.894,0.903,0.89,0.712,0.531,0.559,0.582,0.585,0.514,0.531,0.781,0.719
PC-14,0.374,0.696,0.43,0.433,0.357,0.352,0.306,0.432,0.252,0.243,0.242,0.238,0.179,0.32,0.264,0.285,0.241,0.222,0.471,0.305
NCI-H2087,1.34,1.29,0.758,1.46,1.29,1.18,1.17,1.25,0.589,0.725,0.559,0.673,0.309,0.942,0.879,1.03,0.655,0.878,1.24,1.3
LU99A,0.412,0.281,0.247,0.413,0.295,0.415,0.248,0.29,0.211,0.25,0.161,0.196,0.142,0.611,0.539,0.714,0.623,0.554,0.356,0.364
BEN,0.9,1.08,0.505,0.739,0.635,0.774,0.643,0.679,1.24,1.07,1.1,0.853,0.521,0.325,0.38,0.316,0.35,0.298,0.677,0.665
NCI-H1975,0.763,0.923,0.522,0.826,0.801,0.656,0.618,0.763,0.802,0.856,0.651,0.757,0.408,0.445,0.328,,0.206,0.387,0.717,0.682
NCI-H522,0.857,0.853,0.894,0.936,0.809,0.822,0.9,0.94,0.741,0.617,0.665,0.617,0.429,0.901,0.854,1.01,0.834,0.919,0.898,0.904

# Reference: the supplement of paper PMC10307832
